# Source: patent publication US20250109165A1, “CYCLOPHILIN INHIBITORS AND USES THEREOF” (The Broad Institute, Inc., priority 2022, published 2025)
# Key:
# CypD [1] = target: T1, CypD (Homo sapiens, UniProt P30405); assay: Chymotrypsin coupled prolyl-isomerase assay; assay type: biochemical; conditions: for IC50: wild-type CypD
# T1 construct: PPIF (UniProtKB Entry P30405: res 45-207); made in house; host or cells: E. coli BL21(DE3)
# Experimental: (§1) IC50 values were calculated to be the value at which 50% inhibition was achieved on each compound's non-linear regression fitted curve.
# HeLa cells = assay: Fluorescence microscopy on HeLa cells; assay type: cell-based, human; conditions: Cy5 labeled compound 6 μM
# Experimental: Fluorescence microscopy on Hela cells. Into 96 well black, clear bottom TC treated plates, cells were seeded in Dulbecco's Modified Eagle Medium (DMEM) supplemented with 10% fetal bovine serum 24 hours prior at a density where wells were ˜80% confluent at time of experiment. Media was removed and cells were then stained with 50 μL of mixture containing Cy5 labeled compound (6 μM) in Kreb's ringer solution HEPES buffered pH 7.2 (KRB), for 1 hour at 37° C. Then, 50 μL Hoechst 33342 (8 μM) and Mitotracker Green FM (0.1 μM) in KRB was added directly to wells containing cells and incubated for 15 minutes at 37° C. Media was removed and cells were washed two times with 100 μL KRB. Cells were then kept adherent to the wells in 100 μL KRB for imaging. Fluorescence microscopy was conducted on an Opera Phenix Plus High-Content Screening System, using Alexa 488, Alexa 647, and Hoescht 33342 channels. Images were analyzed using Harmony 4.9.
# [2] = target: T2, human carboxylesterase (CES1) (Homo sapiens, UniProt P23141); assay: In vitro esterase activity on ester pro-drug Cy5 derivatives; assay type: in vitro ADME; conditions: 0.25 μM CES1, 37° C., 8 hours
# T2 sequence (P23141 18-567): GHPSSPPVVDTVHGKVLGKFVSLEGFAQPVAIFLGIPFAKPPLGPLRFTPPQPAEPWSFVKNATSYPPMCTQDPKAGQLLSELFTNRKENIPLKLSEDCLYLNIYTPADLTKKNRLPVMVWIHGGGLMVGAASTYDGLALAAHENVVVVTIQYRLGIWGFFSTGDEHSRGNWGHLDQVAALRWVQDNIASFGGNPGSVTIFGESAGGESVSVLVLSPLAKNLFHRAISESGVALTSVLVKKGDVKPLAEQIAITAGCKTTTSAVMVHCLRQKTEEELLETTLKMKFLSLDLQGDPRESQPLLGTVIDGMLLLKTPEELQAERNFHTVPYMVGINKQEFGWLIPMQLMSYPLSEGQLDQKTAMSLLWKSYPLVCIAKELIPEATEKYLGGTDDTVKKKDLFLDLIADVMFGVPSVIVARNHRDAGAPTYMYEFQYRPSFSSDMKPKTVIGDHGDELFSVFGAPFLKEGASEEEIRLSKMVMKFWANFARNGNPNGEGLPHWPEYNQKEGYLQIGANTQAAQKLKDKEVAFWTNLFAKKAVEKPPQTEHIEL
# Experimental: In vitro esterase activity on ester pro-drug Cy5 derivatives of CypD inhibitors. Into PCR tubes, ester compound (6 μM) and either buffer only, CES1 (0.25 μM), or CES2 (0.25 μM) was diluted in 100 mM Tris-HCl buffer, pH 7.4, with a final DMSO concentration of 1%. Samples were maintained on a PCR block at 37° C. for 8 hours. After incubation, samples were diluted with 20 μL acetonitrile and analyzed by LC-MS at Harvard's Center for Mass Spectroscopy. Di-ester, mono-ester, and di-acid abundances were quantified by total ion count of the primary isotope, and the three compounds were summed and each one expressed as a fraction of the total sum.
# [3] = test system: A549, HeLa, HEK293T, HepG2, and MEFs; assay: Cellular esterase activity on ester pro-drug Cy5 derivatives; assay type: in vitro ADME, human and mouse; conditions: 6 μM, 48 hours (36 hours for HepG2)
# Experimental: Cellular esterase activity on ester pro-drug Cy5 derivatives of CypD inhibitors. Into 96-well clear, flat-bottom TC-treated plates, cells were seeded in DMEM supplemented with 10% FBS for HEK293T, HeLa, and MEFs, F-12K supplemented with 10% FBS for A549, or MEM supplemented with 10% FBS for HepG2, 24 hours prior at a density where wells were ˜70% confluent at time of experiment. Media was removed and cells were incubated with 100 μL of mixture containing each Cy5-conjugated compound (6 μM) in their respective media at 1% DMSO for 48 hours (36 hours for HepG2) at 37° C. at 5% CO2. Supernatant was removed, and cells were washed 2 times with 100 μL of PBS pH 7.4 (Gibco). Cells were then lysed for 15 minutes with 30 μL of 10 mM Tris-HCl pH 8.0 buffer containing 0.05% SDS. Lysates were diluted with 100 μL acetonitrile and filtered. Lysates were analyzed by LC-MS at Harvard's Center for Mass Spectroscopy. Di-ester, mono-ester, and di-acid abundances were quantified by total ion count of the primary isotope, and the three compounds were summed and each one expressed as a fraction of the total sum.
# CypA = target: T3, CypA (Homo sapiens, UniProt P62937); assay: Chymotrypsin coupled prolyl-isomerase assay; assay type: biochemical; conditions: wild-type CypA
# T3 construct: PPIA (UniProtKB Entry P62937: res 1-165); made in house; host or cells: E. coli BL21(DE3)
# Experimental: as §1
# CypA E81S/K82R = target: T4, CypA E81S/K82R (Homo sapiens, UniProt P62937, E81S/K82R); assay: Chymotrypsin coupled prolyl-isomerase assay; assay type: biochemical; conditions: CypA E81S/K82R gatekeeper mutant; read-out: IC50^CypAE81S/K82R
# T4 construct: Lane 12-SNA-CypA E81S/K82R (1-165); His6 tag (N, cleaved yes); made in house; host or cells: E. coli BL21(DE3)
# Experimental: as §1
# CypB = target: T5, CypB (Homo sapiens, UniProt P23284); assay: Chymotrypsin coupled prolyl-isomerase assay; assay type: biochemical; conditions: wild-type CypB
# T5 construct: PPIB (UniProtKB Entry P23284: res 34-216); His6 tag with TEV site (seen as […]- and […]- forms) (N); made in house; host or cells: E. coli BL21(DE3)
# Experimental: as §1
# CypB E121S = target: T6, CypB E121S (Homo sapiens, UniProt P23284, E121S); assay: Chymotrypsin coupled prolyl-isomerase assay; assay type: biochemical; conditions: CypB E121S gatekeeper mutant; read-out: IC50^CypBE121S
# T6 construct: Lane 14-SNA-CypB E121S (34-216); His6 tag (N, cleaved yes); made in house; host or cells: E. coli BL21(DE3)
# Experimental: as §1
# CypD K118A = target: T7, CypD K118A (Homo sapiens, UniProt P30405, K118A); assay: Chymotrypsin coupled prolyl-isomerase assay; assay type: biochemical; conditions: CypD K118A mutant; read-out: IC50^CypDK118A
# T7 construct: made in house; host or cells: E. coli BL21(DE3)
# Experimental: as §1
# CypD K118E = target: T8, CypD K118E (Homo sapiens, UniProt P30405, K118E); assay: Chymotrypsin coupled prolyl-isomerase assay; assay type: biochemical; conditions: CypD K118E mutant; read-out: IC50^CypDK118E
# T8 construct: made in house; host or cells: E. coli BL21(DE3)
# Experimental: as §1
# CypD S123E = target: T9, CypD S123E (Homo sapiens, UniProt P30405, S123E); assay: Chymotrypsin coupled prolyl-isomerase assay; assay type: biochemical; conditions: CypD S123E gatekeeper mutant; read-out: IC50^CypDS123E
# T9 construct: made in house; host or cells: E. coli BL21(DE3)
# Experimental: as §1
# CypD [4] = assay: Chymotrypsin coupled prolyl-isomerase assay; assay type: biochemical, human; conditions: for selectivity for CypD over CypA: CypD versus wild-type CypA
# Experimental: as §1
# cyclophilins = assay: Prolyl-isomerase inhibition screen on cyclophilins and cyclophilin mutants; assay type: biochemical, human; conditions: for potency on cyclophilin mutants compared to wild-type (in words): mutants as named at the place
# Experimental: as §1
# CypD K118E/R124A = target: T10, CypD K118E/R124A (Homo sapiens, UniProt P30405, K118E/R124A); assay: Chymotrypsin coupled prolyl-isomerase assay; assay type: biochemical
# T10 construct: made in house; host or cells: E. coli BL21(DE3)
# Experimental: as §1
# CypD R124A = target: T11, CypD R124A (Homo sapiens, UniProt P30405, R124A); assay: Chymotrypsin coupled prolyl-isomerase assay; assay type: biochemical; conditions: CypD R124A mutant; read-out: IC50^CypDR124A
# T11 construct: made in house; host or cells: E. coli BL21(DE3)
# Experimental: as §1
# T10 sequence (P30405 45-207 K118E/R124A): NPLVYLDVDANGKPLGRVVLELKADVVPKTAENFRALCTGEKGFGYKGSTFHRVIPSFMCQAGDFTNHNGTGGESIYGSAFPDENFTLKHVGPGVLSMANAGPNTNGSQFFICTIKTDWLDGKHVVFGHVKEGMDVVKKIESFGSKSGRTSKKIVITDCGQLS
# T1 sequence (P30405 45-207): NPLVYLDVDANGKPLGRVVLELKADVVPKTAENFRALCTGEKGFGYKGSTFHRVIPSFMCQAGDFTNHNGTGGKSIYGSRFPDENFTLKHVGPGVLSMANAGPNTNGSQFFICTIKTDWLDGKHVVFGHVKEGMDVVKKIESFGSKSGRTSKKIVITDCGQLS
# T8 sequence (P30405 45-207 K118E): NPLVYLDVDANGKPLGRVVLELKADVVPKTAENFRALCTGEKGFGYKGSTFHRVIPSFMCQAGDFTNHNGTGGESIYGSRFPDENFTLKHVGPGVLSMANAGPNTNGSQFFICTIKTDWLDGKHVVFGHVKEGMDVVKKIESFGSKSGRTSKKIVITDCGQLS
# T7 sequence (P30405 45-207 K118A): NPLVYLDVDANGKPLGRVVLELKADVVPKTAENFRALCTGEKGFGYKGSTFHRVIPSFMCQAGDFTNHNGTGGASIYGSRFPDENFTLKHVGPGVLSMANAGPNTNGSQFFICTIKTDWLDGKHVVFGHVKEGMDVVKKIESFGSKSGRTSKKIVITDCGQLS
# T3 sequence (P62937 whole entry): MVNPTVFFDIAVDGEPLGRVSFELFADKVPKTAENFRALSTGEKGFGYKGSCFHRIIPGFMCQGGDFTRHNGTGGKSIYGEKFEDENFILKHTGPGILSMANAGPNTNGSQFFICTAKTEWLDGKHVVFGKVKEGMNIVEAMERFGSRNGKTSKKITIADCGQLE
# T9 sequence (P30405 45-207 S123E): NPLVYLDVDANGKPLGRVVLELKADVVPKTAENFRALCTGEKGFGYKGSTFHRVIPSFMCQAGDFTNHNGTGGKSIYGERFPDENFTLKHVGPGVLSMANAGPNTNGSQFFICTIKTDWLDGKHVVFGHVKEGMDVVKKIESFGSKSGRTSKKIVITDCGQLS
# T6 sequence (P23284 34-216 E121S): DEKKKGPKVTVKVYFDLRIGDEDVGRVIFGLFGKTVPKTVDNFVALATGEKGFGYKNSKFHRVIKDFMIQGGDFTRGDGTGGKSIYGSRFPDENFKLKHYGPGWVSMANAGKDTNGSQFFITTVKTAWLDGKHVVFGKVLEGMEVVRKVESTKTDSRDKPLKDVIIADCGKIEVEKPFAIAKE
# T4 sequence (P62937 whole entry E81S/K82R): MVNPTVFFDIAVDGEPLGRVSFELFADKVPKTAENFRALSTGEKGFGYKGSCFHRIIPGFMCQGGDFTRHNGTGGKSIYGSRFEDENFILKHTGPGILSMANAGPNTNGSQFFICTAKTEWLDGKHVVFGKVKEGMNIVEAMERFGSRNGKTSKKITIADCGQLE
# T5 sequence (P23284 34-216): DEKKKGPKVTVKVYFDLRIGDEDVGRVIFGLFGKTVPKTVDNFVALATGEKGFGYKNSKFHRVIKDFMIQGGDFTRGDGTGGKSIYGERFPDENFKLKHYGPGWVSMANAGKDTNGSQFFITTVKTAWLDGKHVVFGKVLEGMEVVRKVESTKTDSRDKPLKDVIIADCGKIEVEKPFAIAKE
# T11 sequence (P30405 45-207 R124A): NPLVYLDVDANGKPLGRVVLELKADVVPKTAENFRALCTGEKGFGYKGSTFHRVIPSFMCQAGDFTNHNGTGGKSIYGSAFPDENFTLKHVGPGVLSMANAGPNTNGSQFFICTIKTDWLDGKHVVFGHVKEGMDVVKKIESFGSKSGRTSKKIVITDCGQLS
CypD prolyl-isomerase inhibition (in words) (CypD [1]),SMILES,mitochondrial localization (overlap with Mitotracker Green) (HeLa cells),plasma membrane / mammalian cell permeability (HeLa cells),hydrolysis of ester prodrug by CES1 [2],IC50 (CypA),IC50 (CypA E81S/K82R),IC50 (CypB),IC50 (CypB E121S),IC50 (CypD [1]),IC50 (CypD K118A),IC50 (CypD K118E),IC50 (CypD S123E),selectivity for CypD over CypA (CypD [4]),cyclophilin selectivity profile (in words) (cyclophilins),potency on cyclophilin mutants compared to wild-type (in words) (cyclophilins),further results
did not potently inhibit,CCOC(=O)CC(CC(=O)OCC)c1ccc(-c2ccc(C[C@H]3NC(=O)[C@@]4(Cc5ccccc5)CCCN(C4)C(=O)/C=C/C(=O)NCC[C@H](C(=O)NCCNC(=O)CCCCCN4\C(=C/C=C/C=C/C5=[N+](C)c6ccccc6C5(C)C)C(C)(C)c5ccccc54)NC(=O)Cc4ccccc4CNC3=O)cc2)cc1 [*B53-Et-Cy5],good mitochondrial localization,Strong mammalian cell permeability and mitochondrial localization,hydrolyzed to their active dicarboxylate forms,,,,,,,,,,,,
did not potently inhibit,CCOC(=O)C(Cc1ccc(-c2ccc(C[C@H]3NC(=O)[C@@]4(Cc5ccccc5)CCCN(C4)C(=O)/C=C/C(=O)NCC[C@H](C(=O)NCCNC(=O)CCCCCN4\C(=C/C=C/C=C/C5=[N+](C)c6ccccc6C5(C)C)C(C)(C)c5ccccc54)NC(=O)Cc4ccccc4CNC3=O)cc2)cc1)C(=O)OCC [*B52-Et-Cy5],good mitochondrial localization,Strong mammalian cell permeability and mitochondrial localization,hydrolyzed to their active dicarboxylate forms,,,,,,,,,,,,intracellular conversion to di-acid by endogenous esterases [3]: readily converted to the corresponding di-acid
,NCCOCCNC(=O)[C@@H]1CCNC(=O)/C=C/C(=O)N2CCC[C@](Cc3ccccc3)(C2)C(=O)N[C@@H](Cc2ccc(-c3ccc(CC(C(=O)O)C(=O)O)cc3)cc2)C(=O)NCc2ccccc2CC(=O)N1 [Compound B52],,,,1100 nM,27 nM,210 nM,8 nM,10 nM,73 nM,300 nM,240 nM,100 fold,high potency and selectivity for CypD,little to no ablation of potency,
,NCCCc1ccc(-c2ccc(C[C@@H]3NC(=O)[C@]4(Cc5ccccc5)CCCN(C4)C(=O)/C=C/C(=O)NCC[C@@H](C(=O)NCCOCCN)NC(=O)Cc4ccccc4CNC3=O)cc2)cc1 [Compound B32],,,,,,,,6000 nM,,1100 nM,,,,,"reduction in CypD potency (CypD [1]; on inserting an amine with a net positive charge): > 1,000 fold; preference for CypD K118E/R124A over the nearest cyclophilin, PPWD1 (CypD K118E/R124A): at least 13 fold; improvement compared to wild-type CypD (CypD K118E/R124A; CypD K118E/R124A): 100 fold; IC50 (CypD K118E/R124A; CypD double mutant, read-out: IC50^CypDK11E/R124A): 60 nM; IC50 (CypD R124A): 700 nM; inhibition potency improvement compared to wild-type CypD (CypD [4]; CypD mutants K118E and R124A): 5- to 6 fold; inhibition of cyclophilins tested (in words) (cyclophilins): overall poor potency for each cyclophilin"
,NCCOCCNC(=O)[C@@H]1CCNC(=O)/C=C/C(=O)N2CCC[C@](Cc3ccccc3)(C2)C(=O)N[C@@H](Cc2ccc(-c3ccc(C(CC(=O)O)CC(=O)O)cc3)cc2)C(=O)NCc2ccccc2CC(=O)N1 [Compound B53],,,,3400 nM,180 nM,1100 nM,50 nM,57 nM,900 nM,4000 nM,800 nM,100 fold,high potency and selectivity for CypD,little to no ablation of potency,
